{
  "source": "ChEMBL document CHEMBL5126572",
  "about": "“Synthesis and biological evaluation of new series of benzamide derivatives containing urea moiety as sEH inhibitors” (Bioorg Med Chem Lett, 2022)",
  "key": {"[1]": {"biological_target": "T1, Bifunctional epoxide hydrolase 2 (Homo sapiens) (UniProt P34913)", "T1 sequence (whole entry)": "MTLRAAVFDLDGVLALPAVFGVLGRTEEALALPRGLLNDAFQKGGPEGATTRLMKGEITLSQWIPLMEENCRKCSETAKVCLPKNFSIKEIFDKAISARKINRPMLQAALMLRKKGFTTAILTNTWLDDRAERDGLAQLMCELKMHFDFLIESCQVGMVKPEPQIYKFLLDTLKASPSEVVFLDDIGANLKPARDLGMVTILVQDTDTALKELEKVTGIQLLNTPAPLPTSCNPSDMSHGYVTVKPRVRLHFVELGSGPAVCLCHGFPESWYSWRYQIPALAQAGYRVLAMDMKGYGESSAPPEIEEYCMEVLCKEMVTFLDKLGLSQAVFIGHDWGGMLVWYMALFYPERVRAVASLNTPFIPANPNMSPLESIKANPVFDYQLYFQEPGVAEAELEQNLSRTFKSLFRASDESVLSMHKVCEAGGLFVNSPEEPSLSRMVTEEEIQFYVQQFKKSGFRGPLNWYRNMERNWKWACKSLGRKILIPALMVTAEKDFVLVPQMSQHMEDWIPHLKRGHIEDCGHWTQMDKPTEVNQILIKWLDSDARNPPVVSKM", "assay": "Inhibition of sEH (unknown origin) at 100 nM relative to control"}, "Rattus norvegicus": {"test_system": "Rattus norvegicus", "assay": "Antinociceptive activity in carrageenan-induced inflammatory pain Sprague-Dawley rat model assessed as increase in mechanical withdrawal threshold at 50 mg/kg, ip by von-frey filament assay", "type": "functional, organism-based"}, "[2]": {"assay": "Microsomal stability in mouse liver microsomes assessed as half life", "type": "ADME, Microsome"}, "[3]": {"assay": "Microsomal stability in human liver microsomes assessed as half life", "type": "ADME, Microsome"}, "[4]": {"assay": "Microsomal stability in rat liver microsomes assessed as half life", "type": "ADME, Microsome"}, "[5]": {"assay": "Microsomal stability in dog liver microsomes assessed as half life", "type": "ADME, Canis lupus familiaris, Microsome"}},
  "note": "Active and inactive are the calls of the source.",
  "data": [
    {"smiles": "Cc1cc(C(=O)Nc2ccc(F)cn2)ccc1N(CCN1CCOCC1)C(=O)Nc1ccc(Cl)cc1", "values": [
      {"measurement": "inhibition", "setting": "[1]", "value": 97.8, "unit": "%"}
    ]},
    {"smiles": "Cc1cc(C(=O)Nc2ccc(Cl)cc2)ccc1N(CCN1CCS(=O)(=O)CC1)C(=O)Nc1ccc(Cl)cc1", "values": [
      {"measurement": "inhibition", "setting": "[1]", "value": 95.2, "unit": "%"}
    ]},
    {"smiles": "Cc1cc(C(=O)Nc2ccc(Cl)cc2)ccc1N(CCO)C(=O)Nc1ccc(Cl)cc1", "values": [
      {"measurement": "inhibition", "setting": "[1]", "value": 74.3, "unit": "%"}
    ]},
    {"smiles": "Cc1ccc(-c2cc(C(F)(F)F)nn2-c2ccc(S(N)(=O)=O)cc2)cc1", "values": [
      {"measurement": "Activity", "setting": "Rattus norvegicus", "value": "Active"}
    ]},
    {"smiles": "Cc1cc(C(=O)Nc2ccc(Cl)cc2)ccc1N(CCN1CCCC1)C(=O)Nc1ccc(Cl)cc1", "values": [
      {"measurement": "half-life", "setting": "[2]", "value": 35.8, "unit": "min"},
      {"measurement": "half-life", "setting": "[3]", "value": 197, "unit": "min"},
      {"measurement": "Activity", "setting": "Rattus norvegicus", "value": "Active"},
      {"measurement": "inhibition", "setting": "[1]", "value": 98.5, "unit": "%"},
      {"measurement": "half-life", "setting": "[4]", "value": 27.3, "unit": "min"},
      {"measurement": "half-life", "setting": "[5]", "value": 137, "unit": "min"}
    ]},
    {"smiles": "Cc1cc(C(=O)Nc2ccc(Cl)cc2)ccc1N(CCN1CCOC[C@H]1C)C(=O)Nc1ccc(Cl)cc1", "values": [
      {"measurement": "inhibition", "setting": "[1]", "value": 67.1, "unit": "%"}
    ]},
    {"smiles": "Cc1cc(C(N)=O)ccc1N(CCN1CCOCC1)C(=O)Nc1ccc(Cl)cc1", "values": [
      {"measurement": "inhibition", "setting": "[1]", "value": 75.9, "unit": "%"}
    ]},
    {"smiles": "Cc1cc(C(=O)Nc2ccc(F)cn2)ccc1N(CCN1CCCC1)C(=O)Nc1ccc(Cl)cc1", "values": [
      {"measurement": "half-life", "setting": "[2]", "value": 26.2, "unit": "min"},
      {"measurement": "half-life", "setting": "[3]", "value": 27.5, "unit": "min"},
      {"measurement": "inhibition", "setting": "[1]", "value": 94.8, "unit": "%"},
      {"measurement": "half-life", "setting": "[4]", "value": 16, "unit": "min"},
      {"measurement": "half-life", "setting": "[5]", "value": 33.5, "unit": "min"}
    ]},
    {"smiles": "Cc1cc(C(=O)Nc2ccc3c(c2)OCO3)ccc1N(CCN1CCCC1=O)C(=O)Nc1ccc(Cl)cc1", "values": [
      {"measurement": "half-life", "setting": "[3]", "value": 3.9, "unit": "min"},
      {"measurement": "inhibition", "setting": "[1]", "value": 92.7, "unit": "%"},
      {"measurement": "half-life", "setting": "[5]", "value": 3.3, "unit": "min"}
    ]},
    {"smiles": "CC(=O)c1ccc(NC(=O)c2ccc(N(CCN3CCOCC3)C(=O)Nc3ccc(Cl)cc3)c(C)c2)cc1", "values": [
      {"measurement": "inhibition", "setting": "[1]", "value": 84.5, "unit": "%"}
    ]},
    {"smiles": "Cc1cc(C(=O)Nc2ccc(Cl)cc2)ccc1N(CCN1CCOC[C@@H]1C)C(=O)Nc1ccc(Cl)cc1", "values": [
      {"measurement": "inhibition", "setting": "[1]", "value": 63.1, "unit": "%"}
    ]},
    {"smiles": "Cc1cc(C(=O)Nc2nccs2)ccc1N(CCN1CCOCC1)C(=O)Nc1ccc(Cl)cc1", "values": [
      {"measurement": "inhibition", "setting": "[1]", "value": 62.8, "unit": "%"}
    ]},
    {"smiles": "Cc1cc(C(=O)Nc2cnn(C)c2)ccc1N(CCN1CCOCC1)C(=O)Nc1ccc(Cl)cc1", "values": [
      {"measurement": "inhibition", "setting": "[1]", "value": 87.7, "unit": "%"}
    ]},
    {"smiles": "Cc1cc(C(=O)Nc2ccccn2)ccc1N(CCN1CCOCC1)C(=O)Nc1ccc(Cl)cc1", "values": [
      {"measurement": "inhibition", "setting": "[1]", "value": 85.8, "unit": "%"}
    ]},
    {"smiles": "Cc1cc(C(=O)Nc2ccc(Cl)cc2)ccc1N(CCN1CCCCC1)C(=O)Nc1ccc(Cl)cc1", "values": [
      {"measurement": "inhibition", "setting": "[1]", "value": 92.5, "unit": "%"}
    ]},
    {"smiles": "Cc1cc(C(=O)Nc2ccc(Cl)cc2)ccc1N(CCN1CCCC1=O)C(=O)Nc1ccc(Cl)cc1", "values": [
      {"measurement": "half-life", "setting": "[2]", "value": 8.8, "unit": "min"},
      {"measurement": "half-life", "setting": "[3]", "value": 9.5, "unit": "min"},
      {"measurement": "inhibition", "setting": "[1]", "value": 98.9, "unit": "%"},
      {"measurement": "half-life", "setting": "[4]", "value": 4.5, "unit": "min"},
      {"measurement": "half-life", "setting": "[5]", "value": 11, "unit": "min"}
    ]},
    {"smiles": "Cc1cc(C(=O)Nc2ccc(Cl)cc2)ccc1NC(=O)Nc1ccc(Cl)cc1", "values": [
      {"measurement": "inhibition", "setting": "[1]", "value": 80.3, "unit": "%"}
    ]},
    {"smiles": "Cc1cc(C(=O)Nc2ccc(C#N)cc2)ccc1N(CCN1CCOCC1)C(=O)Nc1ccc(Cl)cc1", "values": [
      {"measurement": "inhibition", "setting": "[1]", "value": 64, "unit": "%"}
    ]},
    {"smiles": "Cc1cc(C(=O)Nc2ccc(Cl)cc2)ccc1N(CCN(C)C)C(=O)Nc1ccc(Cl)cc1", "values": [
      {"measurement": "inhibition", "setting": "[1]", "value": 67.7, "unit": "%"}
    ]},
    {"smiles": "Cc1cc(C(=O)Nc2ccc(F)cn2)ccc1N(CCN1CCCC1=O)C(=O)Nc1ccc(Cl)cc1", "values": [
      {"measurement": "half-life", "setting": "[2]", "value": 3.7, "unit": "min"},
      {"measurement": "half-life", "setting": "[3]", "value": 4, "unit": "min"},
      {"measurement": "inhibition", "setting": "[1]", "value": 94.5, "unit": "%"},
      {"measurement": "half-life", "setting": "[4]", "value": 3.1, "unit": "min"},
      {"measurement": "half-life", "setting": "[5]", "value": 3.1, "unit": "min"}
    ]},
    {"smiles": "Cc1cc(C(=O)Nc2ccc(Cl)cc2)ccc1N(CC(=O)N1CCOCC1)C(=O)Nc1ccc(Cl)cc1", "values": [
      {"measurement": "half-life", "setting": "[2]", "value": 28.3, "unit": "min"},
      {"measurement": "half-life", "setting": "[3]", "value": 31.9, "unit": "min"},
      {"measurement": "inhibition", "setting": "[1]", "value": 95.7, "unit": "%"},
      {"measurement": "half-life", "setting": "[4]", "value": 45.9, "unit": "min"},
      {"measurement": "half-life", "setting": "[5]", "value": 37, "unit": "min"}
    ]},
    {"smiles": "CCN(CC)CCN(C(=O)Nc1ccc(Cl)cc1)c1ccc(C(=O)Nc2ccc(Cl)cc2)cc1C", "values": [
      {"measurement": "inhibition", "setting": "[1]", "value": 67.2, "unit": "%"}
    ]},
    {"smiles": "Cc1cc(C(=O)Nc2cnccn2)ccc1N(CCN1CCOCC1)C(=O)Nc1ccc(Cl)cc1", "values": [
      {"measurement": "inhibition", "setting": "[1]", "value": 62.3, "unit": "%"}
    ]},
    {"smiles": "Cc1cc(C(=O)Nc2ccc(Cl)cc2)ccc1N(CCN1CCOCC1=O)C(=O)Nc1ccc(Cl)cc1", "values": [
      {"measurement": "half-life", "setting": "[2]", "value": 8.9, "unit": "min"},
      {"measurement": "half-life", "setting": "[3]", "value": 9.1, "unit": "min"},
      {"measurement": "inhibition", "setting": "[1]", "value": 93.9, "unit": "%"},
      {"measurement": "half-life", "setting": "[4]", "value": 10.7, "unit": "min"},
      {"measurement": "half-life", "setting": "[5]", "value": 12.9, "unit": "min"}
    ]},
    {"smiles": "O=C(NC12CC3CC(CC(C3)C1)C2)N[C@H]1CC[C@H](Oc2ccc(C(=O)O)cc2)CC1", "values": [
      {"measurement": "Activity", "setting": "Rattus norvegicus", "value": "Active"}
    ]},
    {"smiles": "Cc1cc(C(=O)Nc2ccc3c(c2)OCO3)ccc1N(CCN1CCOCC1)C(=O)Nc1ccc(Cl)cc1", "values": [
      {"measurement": "half-life", "setting": "[2]", "value": 4, "unit": "min"},
      {"measurement": "half-life", "setting": "[3]", "value": 6.9, "unit": "min"},
      {"measurement": "inhibition", "setting": "[1]", "value": 95.6, "unit": "%"},
      {"measurement": "half-life", "setting": "[5]", "value": 5.2, "unit": "min"}
    ]},
    {"smiles": "Cc1cc(C(=O)Nc2ccc(C(F)(F)F)nc2)ccc1N(CCN1CCOCC1)C(=O)Nc1ccc(Cl)cc1", "values": [
      {"measurement": "half-life", "setting": "[2]", "value": 7.7, "unit": "min"},
      {"measurement": "half-life", "setting": "[3]", "value": 5.8, "unit": "min"},
      {"measurement": "inhibition", "setting": "[1]", "value": 87.8, "unit": "%"},
      {"measurement": "half-life", "setting": "[4]", "value": 5.4, "unit": "min"},
      {"measurement": "half-life", "setting": "[5]", "value": 5.4, "unit": "min"}
    ]},
    {"smiles": "Cc1cc(C(=O)Nc2ccc(Cl)cc2)ccc1N(CCN1CCSCC1)C(=O)Nc1ccc(Cl)cc1", "values": [
      {"measurement": "inhibition", "setting": "[1]", "value": 83.7, "unit": "%"}
    ]},
    {"smiles": "Cc1cc(C(=O)Nc2ccc(Cl)cc2)ccc1N(CC(C)C)C(=O)Nc1ccc(Cl)cc1", "values": [
      {"measurement": "inhibition", "setting": "[1]", "value": 69.4, "unit": "%"}
    ]},
    {"smiles": "COCCN(C(=O)Nc1ccc(Cl)cc1)c1ccc(C(=O)Nc2ccc(Cl)cc2)cc1C", "values": [
      {"measurement": "inhibition", "setting": "[1]", "value": 70.5, "unit": "%"}
    ]},
    {"smiles": "Cc1cc(C(=O)Nc2ccc(Cl)cc2)ccc1N(CCN1CC[S+]([O-])CC1)C(=O)Nc1ccc(Cl)cc1", "values": [
      {"measurement": "inhibition", "setting": "[1]", "value": 90.4, "unit": "%"}
    ]},
    {"smiles": "Cc1cc(C(=O)Nc2ccc3c(c2)OCO3)ccc1N(CCN1CCCC1)C(=O)Nc1ccc(Cl)cc1", "values": [
      {"measurement": "inhibition", "setting": "[1]", "value": 83.3, "unit": "%"}
    ]}
  ]
}
